US5707979A, “Phosphinic acid derivatives, their preparation and their use” (Hoechst Aktiengesellschaft, priority 1994, dated 1998)

Target: HIV protease (Human immunodeficiency virus type 1 group M subtype B, UniProt P04585)
Assay: Test for inhibition of the HIV protease
Type: biochemical
Conditions: carried out as described in EP 0 428 849 A2, read-out: IC50 (concentration at which the activity of the enzyme is halved)
Experimental: 24) Test for inhibition of the HIV protease
The test for inhibition of the HIV protease was carried out as described in EP 0 428 849 A2. The following IC50 values indicate the concentration at which the activity of the enzyme is halved;

IC50	Compound
0.32 µM	O=C1N(Cc2ccc3ccccc3c2)[C@@H](Cc2ccccc2)P(=O)(O)[C@H](Cc2ccccc2)N1Cc1ccc2ccccc2c1 (relative stereo) [Example 19, 2,6-Dibenzyl-3,5-(2-naphthylmethyl)-1-hydroxy-3,5-diaza-4-oxophosphorinane-1-oxide (racemate composed of [2S,6S] and [2R,6R])]
0.24 µM	O=C1N(Cc2ccc(CO)cc2)[C@@H](Cc2ccccc2)P(=O)(O)[C@H](Cc2ccccc2)N1Cc1ccc(CO)cc1 (relative stereo) [Example 23, ([2R],[6S])-Dibenzyl-3,5-(4-hydroxymethylbenzyl)-1-hydroxy-3,5-diaza-4-oxophosphorinane-1-oxide (racemate composed of [2S,6S] and [2R,6R])]
50 µM	O=C1N(Cc2ccccc2)[C@@H](Cc2ccccc2)P(=O)(O)[C@@H](Cc2ccccc2)N1Cc1ccccc1 [Example 10, ([2R],3,5,[6S])-Tetrabenzyl-1-hydroxy-3,5-diaza-4-oxophosphorinone-1-oxide]
4.8 µM	O=C1N(Cc2ccc(CO)cc2)[C@@H](Cc2ccccc2)P(=O)(O)[C@@H](Cc2ccccc2)N1Cc1ccc(CO)cc1 [Example 12, ([2R],[6S])-Dibenzyl-3,5-(4-hydroxymethylbenzyl)-1-hydroxy-3,5-diaza-4-oxophosphorinone-1-oxide]
18 µM	O=C1N(Cc2ccc(CBr)cc2)[C@@H](Cc2ccccc2)P(=O)(O)[C@@H](Cc2ccccc2)N1Cc1ccc(CBr)cc1 [Example 13, ([2R],[6S])-Dibenzyl-3,5-(4-bromomethylbenzyl)-1-hydroxy-3,5-diaza-4-oxophosphorinone-1-oxide]
